These are literature values, as cited in patent US20230255982A1 (priority 2020, published 2023).

The data set deals with stage 3-4 CKD patients with diabetic nephropathy. The conditions noted are these: ASCEND.

Where two headings read alike, the source gives them in different places. Marks after values point to notes of the source that are not given here.

Take `COc1ccccc1Oc1c(NS(=O)(=O)c2ccc(C)cn2)nc(-c2ccncc2)nc1OC` [Avosentan]: under “25 mg, N = 455”, the “Occurrence of CHF” value is recorded as 5.9%* and the “Occurrence of ESRD” value was 4.4%. Moreover, where the note is “50 mg, N = 478”, the “Occurrence of CHF” value is listed as 6.1%* and the “Occurrence of ESRD” value was 5.0%.
